According to patent publication US20100137449A1, “SUBSTITUTED 1,3-CYCLOPENTADIONE MULTI-TARGET PROTEIN KINASE MODULATORS OF CANCER, ANGIOGENESIS AND THE INFLAMMATORY PATHWAYS ASSOCIATED THEREWITH” (METAPROTEOMICS, LLC, priority 2007, published 2010):

Experiments:
Assay in all cases: KinaseProfiler Assay
PAK4(h) = PAK4(h) (Homo sapiens, UniProt O96013)
Abl(h) = Abl(h) (Homo sapiens, UniProt P00519)
PAK3(h) = PAK3(h) (Homo sapiens, UniProt O75914)
PKBα(h) = PKBα(h) (Homo sapiens, UniProt P31749)
Ret(V804M)(h) = Ret(V804M)(h) (Homo sapiens, UniProt P07949, V804M)
Sequence of Ret(V804M)(h) (P07949 29-1114 V804M): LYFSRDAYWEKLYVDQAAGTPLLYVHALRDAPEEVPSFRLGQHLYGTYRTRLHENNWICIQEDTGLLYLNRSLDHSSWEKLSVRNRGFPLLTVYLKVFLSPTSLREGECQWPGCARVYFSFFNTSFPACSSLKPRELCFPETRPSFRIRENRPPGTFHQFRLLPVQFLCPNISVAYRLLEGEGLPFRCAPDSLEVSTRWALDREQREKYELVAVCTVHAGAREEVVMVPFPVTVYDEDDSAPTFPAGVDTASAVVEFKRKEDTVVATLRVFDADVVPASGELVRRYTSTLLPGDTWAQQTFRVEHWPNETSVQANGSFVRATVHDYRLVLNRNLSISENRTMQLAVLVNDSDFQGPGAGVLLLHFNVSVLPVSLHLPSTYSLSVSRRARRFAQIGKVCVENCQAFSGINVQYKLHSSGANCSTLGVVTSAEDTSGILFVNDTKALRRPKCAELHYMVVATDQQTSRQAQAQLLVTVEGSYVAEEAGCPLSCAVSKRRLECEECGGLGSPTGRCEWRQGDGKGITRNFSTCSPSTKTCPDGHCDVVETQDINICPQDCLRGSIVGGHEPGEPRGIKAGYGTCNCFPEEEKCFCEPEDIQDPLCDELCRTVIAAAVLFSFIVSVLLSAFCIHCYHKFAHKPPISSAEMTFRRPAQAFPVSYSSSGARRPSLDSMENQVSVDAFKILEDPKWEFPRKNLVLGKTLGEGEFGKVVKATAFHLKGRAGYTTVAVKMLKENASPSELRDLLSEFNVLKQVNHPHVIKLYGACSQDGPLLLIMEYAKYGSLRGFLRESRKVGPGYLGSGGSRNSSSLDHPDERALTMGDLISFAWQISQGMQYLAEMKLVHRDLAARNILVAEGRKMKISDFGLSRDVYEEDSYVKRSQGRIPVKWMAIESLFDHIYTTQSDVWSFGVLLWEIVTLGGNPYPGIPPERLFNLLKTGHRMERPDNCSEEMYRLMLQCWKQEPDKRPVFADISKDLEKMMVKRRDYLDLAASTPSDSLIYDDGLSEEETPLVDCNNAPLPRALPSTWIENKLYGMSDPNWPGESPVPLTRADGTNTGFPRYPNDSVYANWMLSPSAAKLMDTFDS

Fms(h) = Fms(h) (Homo sapiens, UniProt P07333)
Sequence of Fms(h) (P07333 20-972): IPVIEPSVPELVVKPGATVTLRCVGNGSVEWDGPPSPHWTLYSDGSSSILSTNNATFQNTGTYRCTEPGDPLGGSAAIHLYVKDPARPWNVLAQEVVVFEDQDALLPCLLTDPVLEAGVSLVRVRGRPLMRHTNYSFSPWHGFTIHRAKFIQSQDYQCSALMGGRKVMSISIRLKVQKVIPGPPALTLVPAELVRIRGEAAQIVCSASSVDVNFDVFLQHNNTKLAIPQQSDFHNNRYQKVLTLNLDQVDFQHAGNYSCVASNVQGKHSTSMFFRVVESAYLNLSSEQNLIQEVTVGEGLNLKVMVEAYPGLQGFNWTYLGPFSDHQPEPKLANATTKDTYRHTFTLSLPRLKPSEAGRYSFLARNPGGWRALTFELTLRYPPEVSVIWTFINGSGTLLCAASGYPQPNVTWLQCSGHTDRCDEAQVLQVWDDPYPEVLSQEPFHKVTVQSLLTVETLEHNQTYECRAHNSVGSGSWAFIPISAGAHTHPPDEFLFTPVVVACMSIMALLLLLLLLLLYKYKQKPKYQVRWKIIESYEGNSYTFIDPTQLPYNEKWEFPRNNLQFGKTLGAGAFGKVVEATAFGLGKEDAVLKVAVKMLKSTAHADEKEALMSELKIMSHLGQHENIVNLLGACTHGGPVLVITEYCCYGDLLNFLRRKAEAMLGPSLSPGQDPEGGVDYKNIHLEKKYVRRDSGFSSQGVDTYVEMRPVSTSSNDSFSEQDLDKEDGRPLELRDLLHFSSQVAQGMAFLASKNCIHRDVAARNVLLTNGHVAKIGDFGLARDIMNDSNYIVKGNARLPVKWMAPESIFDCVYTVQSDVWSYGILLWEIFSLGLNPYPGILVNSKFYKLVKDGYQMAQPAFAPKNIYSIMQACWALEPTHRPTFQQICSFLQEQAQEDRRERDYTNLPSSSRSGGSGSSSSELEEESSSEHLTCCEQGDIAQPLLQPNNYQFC

ZIPK(h) = ZIPK(h) (Homo sapiens, UniProt O43293)
PAR-1Bα(h) = PAR-1Bα(h) (Homo sapiens, UniProt Q7KZI7)
Sequence of PAR-1Bα(h) (Q7KZI7 1-725 isoform Q7KZI7-4): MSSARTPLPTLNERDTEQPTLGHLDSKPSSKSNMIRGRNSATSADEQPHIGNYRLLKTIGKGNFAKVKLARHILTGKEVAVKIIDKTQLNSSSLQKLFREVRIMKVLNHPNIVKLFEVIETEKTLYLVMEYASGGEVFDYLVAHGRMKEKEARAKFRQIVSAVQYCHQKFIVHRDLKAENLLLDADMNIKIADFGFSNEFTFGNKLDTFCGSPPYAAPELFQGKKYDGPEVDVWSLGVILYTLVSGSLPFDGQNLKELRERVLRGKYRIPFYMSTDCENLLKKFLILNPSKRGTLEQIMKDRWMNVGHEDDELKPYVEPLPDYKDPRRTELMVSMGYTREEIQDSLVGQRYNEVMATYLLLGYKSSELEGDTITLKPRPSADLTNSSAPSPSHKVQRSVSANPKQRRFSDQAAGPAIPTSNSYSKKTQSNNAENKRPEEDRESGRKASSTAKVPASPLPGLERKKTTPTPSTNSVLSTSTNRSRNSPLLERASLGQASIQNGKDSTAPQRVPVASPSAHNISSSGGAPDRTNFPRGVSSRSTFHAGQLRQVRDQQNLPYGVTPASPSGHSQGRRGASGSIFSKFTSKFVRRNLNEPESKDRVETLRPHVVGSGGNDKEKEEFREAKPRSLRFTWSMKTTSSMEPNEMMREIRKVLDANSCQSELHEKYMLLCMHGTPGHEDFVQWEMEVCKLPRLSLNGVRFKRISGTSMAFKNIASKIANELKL

PKCβI(h) = PKCβI(h) (Homo sapiens, UniProt P05771)
Sequence of PKCβI(h) (P05771 whole entry): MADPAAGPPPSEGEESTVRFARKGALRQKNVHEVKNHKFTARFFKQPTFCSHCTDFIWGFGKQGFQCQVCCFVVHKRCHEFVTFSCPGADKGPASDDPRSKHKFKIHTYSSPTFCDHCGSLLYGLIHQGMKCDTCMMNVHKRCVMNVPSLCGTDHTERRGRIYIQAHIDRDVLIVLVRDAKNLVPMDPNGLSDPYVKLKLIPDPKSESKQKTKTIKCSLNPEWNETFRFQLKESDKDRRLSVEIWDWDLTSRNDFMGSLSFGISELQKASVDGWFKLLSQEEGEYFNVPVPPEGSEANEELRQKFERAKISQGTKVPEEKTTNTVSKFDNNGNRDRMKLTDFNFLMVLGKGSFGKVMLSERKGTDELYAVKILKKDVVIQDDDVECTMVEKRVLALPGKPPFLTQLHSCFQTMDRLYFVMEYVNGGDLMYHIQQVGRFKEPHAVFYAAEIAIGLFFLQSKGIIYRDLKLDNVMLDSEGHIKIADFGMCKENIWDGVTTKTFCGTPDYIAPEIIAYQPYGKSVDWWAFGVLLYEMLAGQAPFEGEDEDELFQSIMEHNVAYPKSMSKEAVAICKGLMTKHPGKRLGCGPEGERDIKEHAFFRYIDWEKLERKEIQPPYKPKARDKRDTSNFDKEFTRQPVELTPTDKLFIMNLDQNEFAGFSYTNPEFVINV

Lyn(m) = Lyn(m) (Mus musculus, UniProt P25911)
Sequence of Lyn(m) (P25911 whole entry): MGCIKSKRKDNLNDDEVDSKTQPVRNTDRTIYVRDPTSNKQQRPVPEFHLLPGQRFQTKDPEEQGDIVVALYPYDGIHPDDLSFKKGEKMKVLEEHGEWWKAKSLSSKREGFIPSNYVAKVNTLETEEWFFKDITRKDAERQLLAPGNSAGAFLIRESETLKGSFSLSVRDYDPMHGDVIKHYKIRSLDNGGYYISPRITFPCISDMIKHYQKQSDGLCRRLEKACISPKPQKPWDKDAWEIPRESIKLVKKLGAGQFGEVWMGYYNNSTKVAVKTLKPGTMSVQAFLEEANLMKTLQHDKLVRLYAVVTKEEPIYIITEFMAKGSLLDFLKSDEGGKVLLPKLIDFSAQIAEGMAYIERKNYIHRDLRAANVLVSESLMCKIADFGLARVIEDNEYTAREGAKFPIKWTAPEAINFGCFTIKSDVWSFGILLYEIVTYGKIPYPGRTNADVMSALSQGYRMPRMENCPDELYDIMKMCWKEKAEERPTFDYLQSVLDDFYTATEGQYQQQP

PKCθ(h) = PKCθ(h) (Homo sapiens, UniProt Q04759)
Haspin(h) = target: T1, Haspin(h) (Homo sapiens, UniProt Q8TF76)
T1 sequence (Q8TF76 1-798): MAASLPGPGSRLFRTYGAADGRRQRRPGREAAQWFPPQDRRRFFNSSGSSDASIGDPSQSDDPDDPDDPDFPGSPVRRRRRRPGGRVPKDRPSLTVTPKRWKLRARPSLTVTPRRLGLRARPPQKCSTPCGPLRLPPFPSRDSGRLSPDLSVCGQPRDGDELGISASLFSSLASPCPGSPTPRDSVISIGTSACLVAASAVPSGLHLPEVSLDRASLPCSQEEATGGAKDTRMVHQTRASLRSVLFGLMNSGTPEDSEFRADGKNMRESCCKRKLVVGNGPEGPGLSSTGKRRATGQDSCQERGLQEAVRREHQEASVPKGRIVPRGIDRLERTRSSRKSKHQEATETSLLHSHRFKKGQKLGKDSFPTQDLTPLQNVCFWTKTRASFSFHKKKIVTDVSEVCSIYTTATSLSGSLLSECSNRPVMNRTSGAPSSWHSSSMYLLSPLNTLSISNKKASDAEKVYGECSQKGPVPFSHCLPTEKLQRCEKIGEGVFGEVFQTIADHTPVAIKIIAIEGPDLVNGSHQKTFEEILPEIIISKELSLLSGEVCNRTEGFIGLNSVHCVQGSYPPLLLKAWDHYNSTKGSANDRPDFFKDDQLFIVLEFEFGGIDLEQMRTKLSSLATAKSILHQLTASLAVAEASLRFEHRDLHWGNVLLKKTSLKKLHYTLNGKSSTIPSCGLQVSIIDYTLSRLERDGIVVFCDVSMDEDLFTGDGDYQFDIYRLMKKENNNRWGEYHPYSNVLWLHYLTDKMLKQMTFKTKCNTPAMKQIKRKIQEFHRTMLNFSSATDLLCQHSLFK

Sequence of PAK3(h) (O75914 whole entry): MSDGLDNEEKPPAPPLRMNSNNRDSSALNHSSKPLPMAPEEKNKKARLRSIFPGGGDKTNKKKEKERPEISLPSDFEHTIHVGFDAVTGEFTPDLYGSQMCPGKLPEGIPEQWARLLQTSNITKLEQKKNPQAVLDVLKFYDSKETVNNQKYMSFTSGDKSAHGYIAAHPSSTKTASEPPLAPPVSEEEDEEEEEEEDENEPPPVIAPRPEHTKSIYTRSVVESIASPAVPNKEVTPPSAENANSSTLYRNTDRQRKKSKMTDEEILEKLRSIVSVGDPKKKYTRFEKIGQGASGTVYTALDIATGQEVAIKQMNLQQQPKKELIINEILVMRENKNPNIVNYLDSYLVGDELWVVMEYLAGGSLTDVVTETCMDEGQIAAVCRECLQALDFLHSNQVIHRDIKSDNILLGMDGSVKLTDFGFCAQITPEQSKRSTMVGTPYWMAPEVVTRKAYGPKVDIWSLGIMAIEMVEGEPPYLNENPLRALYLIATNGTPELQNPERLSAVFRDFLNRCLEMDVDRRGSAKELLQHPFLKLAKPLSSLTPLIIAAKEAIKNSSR
Sequence of PKBα(h) (P31749 whole entry): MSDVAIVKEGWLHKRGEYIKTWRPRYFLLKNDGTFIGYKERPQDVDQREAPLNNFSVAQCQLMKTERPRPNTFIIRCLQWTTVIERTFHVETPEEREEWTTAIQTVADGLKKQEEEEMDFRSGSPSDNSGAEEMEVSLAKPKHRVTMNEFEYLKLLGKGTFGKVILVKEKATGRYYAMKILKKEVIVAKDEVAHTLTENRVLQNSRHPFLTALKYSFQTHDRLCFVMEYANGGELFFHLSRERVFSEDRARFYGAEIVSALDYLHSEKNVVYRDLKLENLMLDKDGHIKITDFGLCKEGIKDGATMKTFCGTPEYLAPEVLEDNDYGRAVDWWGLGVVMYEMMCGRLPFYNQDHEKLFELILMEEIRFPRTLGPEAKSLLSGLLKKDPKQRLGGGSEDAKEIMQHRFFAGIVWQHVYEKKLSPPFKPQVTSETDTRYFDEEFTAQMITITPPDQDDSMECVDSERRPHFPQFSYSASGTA

Which results are given for `CC(C)CCC(=O)[C@]1(O)C(O)=C(C(=O)C(C)C)C(=O)[C@H]1CCC(C)C` [TH2, tetrahydroiso-cohumulone]?
kinase inhibition (PAK4(h); 1 μg/ml): 105% of control; kinase inhibition (PAK4(h); 5 μg/ml): 84% of control; kinase inhibition (PAK4(h); 25 μg/ml): 98% of control; kinase inhibition (PAK4(h); 50 μg/ml): 110% of control; kinase inhibition (PAK4(h); 100 μg/ml): 99% of control; kinase inhibition (Abl(h); 1 μg/ml): 92% of control; kinase inhibition (Abl(h); 5 μg/ml): 87% of control; kinase inhibition (Abl(h); 25 μg/ml): 70% of control; kinase inhibition (Abl(h); 50 μg/ml): 64% of control; kinase inhibition (Abl(h); 100 μg/ml): 40% of control; kinase inhibition (PAK3(h); 1 μg/ml): 103% of control; kinase inhibition (PAK3(h); 5 μg/ml): 102% of control; kinase inhibition (PAK3(h); 25 μg/ml): 49% of control; kinase inhibition (PAK3(h); 50 μg/ml): 47% of control; kinase inhibition (PAK3(h); 100 μg/ml): 40% of control; kinase inhibition (PKBα(h); 1 μg/ml): 123% of control; kinase inhibition (PKBα(h); 5 μg/ml): 130% of control; kinase inhibition (PKBα(h); 25 μg/ml): 126% of control; kinase inhibition (PKBα(h); 50 μg/ml): 118% of control; kinase inhibition (PKBα(h); 100 μg/ml): 79% of control; kinase inhibition (Ret(V804M)(h); 1 μg/ml): 107% of control; kinase inhibition (Ret(V804M)(h); 5 μg/ml): 104% of control; kinase inhibition (Ret(V804M)(h); 25 μg/ml): 110% of control; kinase inhibition (Ret(V804M)(h); 50 μg/ml): 94% of control; kinase inhibition (Ret(V804M)(h); 100 μg/ml): 88% of control; kinase inhibition (Fms(h); 1 μg/ml): 116% of control; kinase inhibition (Fms(h); 5 μg/ml): 103% of control; kinase inhibition (Fms(h); 25 μg/ml): 121% of control; kinase inhibition (Fms(h); 50 μg/ml): 117% of control; kinase inhibition (Fms(h); 100 μg/ml): 98% of control; kinase inhibition (ZIPK(h); 1 μg/ml): 106% of control; kinase inhibition (ZIPK(h); 5 μg/ml): 96% of control; kinase inhibition (ZIPK(h); 25 μg/ml): 91% of control; kinase inhibition (ZIPK(h); 50 μg/ml): 81% of control; kinase inhibition (ZIPK(h); 100 μg/ml): 76% of control; kinase inhibition (PAR-1Bα(h); 1 μg/ml): 109% of control; kinase inhibition (PAR-1Bα(h); 5 μg/ml): 113% of control; kinase inhibition (PAR-1Bα(h); 25 μg/ml): 114% of control; kinase inhibition (PAR-1Bα(h); 50 μg/ml): 116% of control; kinase inhibition (PAR-1Bα(h); 100 μg/ml): 88% of control; kinase inhibition (PKCβI(h); 1 μg/ml): 105% of control; kinase inhibition (PKCβI(h); 5 μg/ml): 110% of control; kinase inhibition (PKCβI(h); 25 μg/ml): 93% of control; kinase inhibition (PKCβI(h); 50 μg/ml): 95% of control; kinase inhibition (PKCβI(h); 100 μg/ml): 92% of control; kinase inhibition (Lyn(m); 1 μg/ml): 116% of control; kinase inhibition (Lyn(m); 5 μg/ml): 110% of control; kinase inhibition (Lyn(m); 25 μg/ml): 76% of control; kinase inhibition (Lyn(m); 50 μg/ml): 58% of control; kinase inhibition (Lyn(m); 100 μg/ml): 68% of control; kinase inhibition (PKCθ(h); 1 μg/ml): 101% of control; kinase inhibition (PKCθ(h); 5 μg/ml): 84% of control; kinase inhibition (PKCθ(h); 25 μg/ml): 116% of control; kinase inhibition (PKCθ(h); 50 μg/ml): 96% of control; kinase inhibition (PKCθ(h); 100 μg/ml): 83% of control; kinase inhibition (Haspin(h); 1 μg/ml): 105% of control; kinase inhibition (Haspin(h); 5 μg/ml): 95% of control; kinase inhibition (Haspin(h); 25 μg/ml): 90% of control; kinase inhibition (Haspin(h); 50 μg/ml): 76% of control; kinase inhibition (Haspin(h); 100 μg/ml): 49% of control
